Structures are written as SMILES.

The data set is described as follows: gradient 5% acetonitrile 3 min, to 50% in 2 min, to 85% in 15 min, held 3 min, 100 µL/min. The following applies: column: Zorbax Extend-C18 2.1 x 50 mm; eluents: water / acetonitrile, 0.1% formic acid. An outline of the steps:
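The system's dead and dwell volumes were 40 μL and 900 μL, with a Zorbax Extend-C18 column (2.1 × 50 mm, 1.8 μm) run at 100 μL/min in water and acetonitrile containing 0.1% formic acid each. Pure standards were analyzed in mixtures of ~100 molecules by HPLC–quadrupole time-of-flight mass spectrometry in positive and negative ionization mode. Retention time was assigned from computationally picked, manually inspected adduct peaks.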
`COCCc1noc(C2Cc3ccccc3N2C(=O)Nc2ccc(OC)c(OC)c2)n1` (centres undefined): the RP-LC retention time came out at 851 s. `Cc1ccc(NC(=O)Cn2nc(N(C)C)c3ccccc3c2=O)c(C)c1`: the RP-LC retention time came out at 869 s. As for `COc1cccc(CCNC(=O)CN2C(=O)CSc3cccn3-c3ccccc32)c1`, the RP-LC retention time was 900 s. For the compound `O=C(c1cc(-c2ccco2)[nH]n1)N1CCN(c2ccccn2)CC1`, the RP-LC retention time came to 583 s. Consider `COc1ccc(OC)c(NC(=O)c2cc(C)n(CCN(C)C)c2C)c1`, for which the RP-LC retention time is 636 s. The compound `Cc1ccc2c(c1)C1CC(C)(O2)N(c2cccc(C(=O)NCc3ccco3)c2)C(=O)N1` (centres undefined) came in with an RP-LC retention time of 801 s. As to `CN1CCCCCCN(C(=O)c2cc(CN3CCOCC3)on2)[C@H]2CCC[C@H]2C1=O`, the RP-LC retention time was 614 s. As for `CCCN1CCN(C(=O)c2cn(-c3cc(N4CCSCC4)ncn3)cn2)CC1`, the figure is 605 s; as for `COc1ccccc1N1C(=O)CC(Sc2ccccc2N)C1=O` (centres undefined), 865 s; as for `O=C(CSc1nnc(NC(=O)COc2ccc(Cl)cc2)s1)NCc1ccco1`, 768 s. As to `CN1C(=O)c2cc(S(=O)(=O)Nc3ccc(F)cc3)ccc2Oc2cccnc21`, the RP-LC retention time was 906 s.

On to `CCOc1cccc(-c2noc(Cn3c(=O)n(-c4ccc(OC)cc4)c(=O)c4sccc43)n2)c1`, for which the RP-LC retention time is 1000 s.

With `O=C(Cn1nc2c(Oc3ccc(Cl)cc3)nccn2c1=O)NCc1ccco1`, the RP-LC retention time was found to be 804 s. As for `CCOc1ccccc1-c1csc(NC(=O)c2sc(C)nc2C)n1`, the figure is 981 s. On to `O=C(Nc1ccc(F)cc1)c1cn(CC(O)c2ccc3c(c2)OCO3)nn1` (centres undefined), for which the RP-LC retention time was determined as 777 s. In turn, `O=C(Nc1cccc(Br)c1)c1cnc(-c2ccccc2)nc1-c1ccncc1` gave an RP-LC retention time of 990 s. In turn, `O=C(Nc1cccc(OCc2nnc(-c3ccccc3)o2)c1)c1ccsc1` came in with an RP-LC retention time of 914 s. Then `Cc1cc(OCC(=O)Nc2ccccc2Cl)nc(N2CCN(c3ccccc3)CC2)n1`, with 993 s; and `O=C(NCCc1ccccc1)N(C1CCOCC1)C1CCN(Cc2cccnc2)CC1`, with 604 s; and `O=C1CC(c2noc(Cc3ccc(F)cc3)n2)CN1c1ccc(F)c(Cl)c1` (centres undefined), with 1040 s. For the compound `O=C(NCc1ccc(N2CCOCC2)cc1)c1cn2ccccc2n1`, the RP-LC retention time stood at 591 s. With `COCCn1c(C2CCN(C(=O)c3cc(Cl)ccc3OC)C2)nc2ccncc21` (centres undefined), the RP-LC retention time stood at 561 s. `Cc1ccn2cc(C(=O)NCc3ccc(N(C)C)cc3)nc2c1` returned an RP-LC retention time of 543 s. For the compound `COc1cccc(NC(=O)N2CCCC(Cn3cnc4cccnc43)C2)c1` (centres undefined), the RP-LC retention time amounted to 653 s.

Consider `CCOC(=O)C1=C(C)N(CC(=O)N2CCCC2)c2ncnn2C1c1ccc(C)cc1` (centres undefined), for which the RP-LC retention time stood at 824 s. As to `Cc1nc(Nc2ncc3c(n2)CCCC3=O)nc2c(C)cccc12`, the RP-LC retention time stood at 620 s. For the compound `Cc1nc(C(=O)Nc2ccc(F)cc2C)c(C)o1`, the RP-LC retention time turned out to be 889 s. Turning to `O=C(Nc1nnc2n1CCS2)c1c(F)cccc1F`, the RP-LC retention time is 584 s. `Cc1ccccc1-n1ncc2c(C)nn(CC(=O)Nc3cccc(C(F)(F)F)c3)c(=O)c21` showed an RP-LC retention time of 941 s. For `O=C(Nc1ccc(Cl)cc1)C1CCc2sc(C(=O)N3CCOCC3)cc2C1` (centres undefined), the RP-LC retention time worked out at 759 s. `CCn1c(N2CCCC(C(=O)NCc3ccc(SC)cc3)C2)cc(=O)n(C)c1=O` (centres undefined) returned an RP-LC retention time of 809 s.

For `CCOC(=O)c1c(S(=O)(=O)N2CCC(C(=O)Nc3cccc(Cl)c3)CC2)c(C)n(CC)c1C`, the RP-LC retention time was determined as 986 s. As for `Cn1cc(-c2ccc3ncc(Cc4ccc5ncccc5c4)n3n2)cn1`, the RP-LC retention time is 582 s.

In turn, `CCc1ccc(NC(=O)Cn2c(=O)c3cc(C)nn3c3ncccc32)cc1` came in with an RP-LC retention time of 786 s. On to `O=C(C1CCCN(c2ncnc3c2nc2n3CCCCC2)C1)N1CCCCC1` (centres undefined), for which the RP-LC retention time came out at 713 s. `Cc1nc(-c2cn(C)c3ncccc23)sc1C(=O)NCc1ccccc1Cl` registered an RP-LC retention time of 942 s. As to `CN(C)CCCNC(=O)C1CCN(c2nc3ccc(-c4cccnc4)nc3s2)CC1`, the RP-LC retention time stood at 543 s.

`Cc1ccc(-n2nc3c(=O)n(C(C)C(=O)NCc4ccc5c(c4)OCO5)nc(C)c3c2C)cc1` (centres undefined): the RP-LC retention time worked out at 878 s. `COC(=O)C1=C(C)N(C2CCCC2)C(=O)C1(NC(=O)c1ccccc1OC)C(F)(F)F` (centres undefined) had an RP-LC retention time of 1070 s. The compound `CCN1C(=O)COc2ccc(-c3noc(CNC(=O)Cc4ccc(Cl)cc4)n3)cc21` showed an RP-LC retention time of 859 s.

`O=C(O)c1ccc(NC(=O)c2ccc([N+](=O)[O-])cc2Cl)cc1` showed an RP-LC retention time of 719 s.

`Cn1nc(-c2nnc(-c3ccc(F)cc3)o2)c2c1CCN(S(=O)(=O)c1cccc3nsnc13)C2`: the RP-LC retention time is 910 s. As for `COc1ccc(Cl)cc1NC(=O)c1cnc2sccn2c1=O`, the RP-LC retention time amounted to 839 s.

In the case of `CCN1CCN(C(=O)C2CCN(C3=NS(=O)(=O)C(c4ccc(C)c(C)c4)=C3C)CC2)CC1`, the RP-LC retention time amounted to 598 s.

In turn, `Cc1ccc(CNC(=O)C2(c3ccc(NS(C)(=O)=O)cc3)CCCCC2)cc1` gave an RP-LC retention time of 943 s. For `COc1ccc(-n2c(=O)c3sccc3n(Cc3nc(-c4ccc(F)c(Cl)c4)no3)c2=O)cc1`, the RP-LC retention time was determined as 1040 s. Compound `COc1ccc(CC(=O)N2CCCC(c3nnc(-c4ccccc4F)s3)C2)cc1OC` (centres undefined) came in with an RP-LC retention time of 794 s. `O=C(c1ccn2c(-c3ccc(Cl)cc3)nnc2c1)N1CCN(c2ccccn2)CC1` displayed an RP-LC retention time of 596 s.

In turn, `Cc1nc(CCNS(=O)(=O)c2cccnc2)no1` displayed an RP-LC retention time of 603 s. `O=C(O)c1cncc(Br)c1`: the RP-LC retention time amounted to 701 s. Consider `Cc1cccc(NC(=O)NCC(c2cccnc2)c2cn(C)c3ccccc23)c1C` (centres undefined), for which the RP-LC retention time was 719 s. `CCN1C(=O)c2cccnc2Sc2cc(C(=O)NC(C)C)ccc21` returned an RP-LC retention time of 697 s. In the case of `CC(C)(C)CC(=O)N1CCC(Oc2nccnc2N2CCc3ccccc32)C1` (centres undefined), the RP-LC retention time is 1060 s. `CCOc1ccc(-c2cc3c(=O)n(Cc4nc(-c5ccccc5OCC)no4)ncn3n2)cc1` yielded an RP-LC retention time of 1180 s.

As for `COc1cc(NC(=O)Cc2csc3nc(-c4ccccc4)cn23)cc(OC)c1`, the RP-LC retention time worked out at 795 s. The compound `COc1cc2c(cc1OC)C(C(=O)NC1CCCCC1)C(c1cccnc1)N(C)C2=O` (centres undefined) registered an RP-LC retention time of 994 s. Regarding `Clc1cccc(-c2nc3ccc(Cl)cn3c2Nc2ccc3c(c2)OCO3)c1`, the RP-LC retention time stood at 978 s.

On to `COc1ccc(-c2n[nH]c3c2C(c2ccc(O)cc2)N(C)C3=O)cc1` (centres undefined), for which the RP-LC retention time was determined as 667 s. `CCC1CCCCN1CCCNC(=O)Cn1ccc2cc(S(=O)(=O)N3CCCCCC3)ccc21` (centres undefined) yielded an RP-LC retention time of 704 s. Compound `CC(C)Oc1ccc(CNC(=O)CN2CCN(Cc3ccc(F)cc3)C2=O)cc1` gave an RP-LC retention time of 865 s. Then `O=C(CSc1ccc(F)cc1)NCC1(c2ccc(F)cc2)CC1`, with 909 s; and `COC(=O)c1cc2c(=O)n(-c3nc4ccc(OC)cc4s3)ccc2nc1C`, with 1160 s. Take `COc1cccc(C2=NN(C(C)=O)C(c3cccc(Br)c3)O2)c1OC(C)=O` (centres undefined): the RP-LC retention time is 1070 s. With `CC(C)N1CCN(C(=O)c2csc(C(=O)NC3CCCC3)n2)CC1`, the RP-LC retention time was found to be 590 s. Consider `Cc1ccc(N2CCCS2(=O)=O)cc1NS(=O)(=O)c1c(C)noc1C`, for which the RP-LC retention time was 866 s. Compound `CNC(=O)Cc1csc(-c2ccccc2F)n1` had an RP-LC retention time of 725 s. Turning to `O=C(c1ccc(Cl)cc1)N1CCC2(C1)C(=O)Nc1ccccc12` (centres undefined), the RP-LC retention time stood at 765 s. As for `C=CCN1CCN(c2nc3cc(C(=O)OC)ccc3c(=O)n2-c2ccc(OC)c(OC)c2)CC1`, the RP-LC retention time was found to be 631 s. Regarding `O=C(NCC(O)C1CCCCC1)c1cccc(C(F)(F)F)c1` (centres undefined), the RP-LC retention time amounted to 840 s. In the case of `CCCn1cc(S(=O)(=O)Nc2ccc(F)cc2C)c2cccnc21`, the RP-LC retention time was found to be 926 s.

`CCOc1ccc(-c2noc(CN3C(=O)COc4cc(C)ccc43)n2)cc1`: the RP-LC retention time amounted to 1110 s. On to `CCN(CC)S(=O)(=O)c1ccc2c(c1)CC(C(=O)NC1CCCCC1)N2C(C)=O` (centres undefined), for which the RP-LC retention time is 839 s. Then `CCc1ccccc1NC(=O)Cn1cnc2nc(N3CCCC(C(=O)NC4CC4)C3)sc2c1=O` (centres undefined), with 692 s; and `Cc1nc([C@@H]2CN(C(=O)c3cc(C)n(Cc4ccco4)c3C)C[C@H]2C(N)=O)n[nH]1`, with 618 s; and `COc1ccc(S(=O)(=O)N2CCCC(C(=O)Nc3cccc(SC)c3)C2)cc1C` (centres undefined), with 1030 s. Consider `COc1ccc(CNC(=O)c2c(C)oc3ccn(C)c(=O)c23)cc1`, for which the RP-LC retention time is 824 s. Then `c1ccc2c(-c3nnc(C4CC4)o3)nnc(NC3CCCCC3)c2c1`, with 793 s; and `Cc1c(C(=O)Nc2cc(=O)n(C)c(=O)n2C)cccc1[N+](=O)[O-]`, with 652 s; and `O=C(O)[C@@H]1OCC(=O)N(C2CC2)[C@H]1c1ccccc1`, with 648 s.

The record behind these values is the METLIN SMRT retention time set (Domingo-Almenara et al. 2019).
